Results: PMC6934184, “Selective DNA-PKcs inhibition extends the therapeutic index of localized radiotherapy and chemotherapy” (The Journal of Clinical Investigation, 2019)

Biological target: T1, BMPR1A (ALK3) (Homo sapiens, UniProt P36894)
T1 construct: purchased Thermo Fisher Scientific (Life Technologies) SelectScreen
Experiment: SelectScreen LanthaScreen
Assay type: binding
Details: read-out: % displacement
Procedure, shortened: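 Percent values come from Thermo SelectScreen profiling of NU5455, combining activity and binding assays. CSF1R was run in Z'LYTE format at Km app ATP, and CAMK1 in Adapta format with ATP listed at 10.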

T1 sequence (P36894 24-532): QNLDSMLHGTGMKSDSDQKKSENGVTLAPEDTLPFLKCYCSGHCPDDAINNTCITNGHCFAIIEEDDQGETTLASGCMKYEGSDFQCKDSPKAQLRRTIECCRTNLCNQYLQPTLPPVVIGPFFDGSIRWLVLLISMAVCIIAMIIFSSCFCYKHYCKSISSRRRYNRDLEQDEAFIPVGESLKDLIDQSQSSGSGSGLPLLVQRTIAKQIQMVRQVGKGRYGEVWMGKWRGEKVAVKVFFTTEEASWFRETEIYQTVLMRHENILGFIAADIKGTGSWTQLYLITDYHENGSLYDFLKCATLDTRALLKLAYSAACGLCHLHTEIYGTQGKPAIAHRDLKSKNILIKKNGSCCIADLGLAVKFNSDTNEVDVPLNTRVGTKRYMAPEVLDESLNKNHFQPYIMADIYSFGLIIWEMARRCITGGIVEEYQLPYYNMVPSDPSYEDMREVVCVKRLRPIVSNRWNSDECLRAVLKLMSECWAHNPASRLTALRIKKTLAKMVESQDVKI

**Q.** CN(C(=O)CN1CCOCC1)c1ccc2sc3c(-c4cccc5c(=O)cc(N6CC7CCC(C6)O7)oc45)cccc3c2c1 [NU5455] was tested. Which inhibition at 1 µM did it give?
**A.** -4.4%
